The record followed here is BindingDB's records for doi:10.7270/Q25B012X (Burnham Center For Chemical Genomics, 2012).

The structures appear in SMILES notation. pIC50: −log10 of the molar value. Where only a bound is given, the exact number is not on record here.

As usually defined, the pIC50 is the negative decadic logarithm of the IC50, by convention in mol/L. A higher pIC50 goes with a small IC50.

Protein Wnt-3a, sequence (P27467 whole entry): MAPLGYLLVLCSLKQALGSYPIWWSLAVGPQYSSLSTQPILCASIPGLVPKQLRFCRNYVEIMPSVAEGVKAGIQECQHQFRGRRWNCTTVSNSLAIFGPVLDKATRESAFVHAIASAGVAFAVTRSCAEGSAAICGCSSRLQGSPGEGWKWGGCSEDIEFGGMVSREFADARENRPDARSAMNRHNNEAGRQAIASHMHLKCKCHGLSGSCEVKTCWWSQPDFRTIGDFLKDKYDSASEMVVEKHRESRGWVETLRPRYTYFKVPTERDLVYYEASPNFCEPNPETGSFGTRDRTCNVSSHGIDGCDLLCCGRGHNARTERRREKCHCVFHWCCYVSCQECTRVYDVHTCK

The assay has as its target Protein Wnt-3a (Mus musculus, UniProt P27467).
Consider `C[n+]1c2n(c3ccccc31)N=C(c1ccccc1)CS2` [SMR000176360], for which the pIC50 is below 4.30.

In turn, `COc1cc(C(=O)NC2CCN(C)CC2)ccc1Nc1ncc2c(n1)N(Cc1ccccc1)CCC(=O)N2C` [3-methoxy-4-[[5-methyl-6-oxo-9-(phenylmethyl)-7,8-dihydropyrimido[4,5-b][1,4]diazepin-2-yl]amino]-N-(1-methyl-4-piperidinyl)benzamide] had a negative-log IC50 (pIC50) below 4.30.

In turn, `CCn1c(=O)cc(SCC(=O)N2CCN(C3CCCCC3)CC2)c2ccccc21` [MLS000092496] had a pIC50 below 4.30.

In turn, `CC(NC(=O)c1cc2c(=O)n3ccccc3nc2n(CC2CCCO2)c1=N)c1ccccc1` (stereo not drawn) [MLS001217747] gave a pIC50 below 4.30.

On to `CC(=O)N1c2ccc(S(=O)(=O)N3CCC(C(=O)N4CCCCC4)CC3)cc2CC1C` (stereo not drawn) [1-[2-methyl-5-(4-piperidin-1-ylcarbonylpiperidin-1-yl)sulfonyl-2,3-dihydroindol-1-yl]ethanone], for which the pIC50 is below 4.30.

Turning to `CCn1c(CC=Nc2ccccc2)[n+](CC)c2cc(Cl)c(Cl)cc21` [N-[(E)-2-[5,6-bis(chloranyl)-1,3-diethyl-benzimidazol-3-ium-2-yl]ethenyl]aniline;iodide], the pIC50 was 5.14.

On to `COc1cc2c(c(OC)c1OC)-c1ccc(N(C)CC(OC)OC)c(=O)cc1[C@@H](NC(C)=O)CC2` [SMR000540275], for which the negative logarithm of the IC50 (pIC50) was below 4.30.

With `CCc1ccccc1NC(=S)NN=C1C(=O)N(C)c2ccc(S(=O)(=O)N3CCOCC3)cc21` [SMR000207996], the pIC50 is 4.88.

In the case of `O=C(Cn1c(-c2ccccc2)c[n+]2ccsc12)c1ccc(Br)cc1` [SMR000354292], the pIC50 was below 4.30.

`O=C(NC1CCCC1)c1cc(COc2ccc3ncccc3c2)on1` showed a pIC50 below 4.30.

`Brc1ccc(-[n+]2c(-c3ccccc3)cc(-c3ccccc3)cc2-c2ccccc2)cc1` [SMR000841262] had a pIC50 of 4.81.

Regarding `CCN1C(=O)CCN(C2CCCC2)c2nc(Nc3ccc(C(=O)NC4CCN(C)CC4)cc3OC)ncc21`, the pIC50 is below 4.30.

Compound `Cc1ccc(C2=C(CC(=O)O)C(=O)CC2)cc1` [2-[2-(4-methylphenyl)-5-oxidanylidene-cyclopenten-1-yl]ethanoic acid] showed a pIC50 below 4.30.

`Cc1nc2sccn2c1-c1csc(NCc2ccccc2)n1` [4-(6-methyl-5-imidazo[2,1-b]thiazolyl)-N-(phenylmethyl)-2-thiazolamine]: the pIC50 is below 4.30.

With `CCOc1ccc(-n2c(O)c(CN=Nc3nc(C)cc(C)n3)c3ccccc3c2=O)cc1` [(4Z)-4-[[(4,6-dimethyl-2-pyrimidinyl)hydrazo]methylidene]-2-(4-ethoxyphenyl)isoquinoline-1,3-dione], the pIC50 was 4.95.

`CCC(=O)c1ccc(OCC(O)Cn2c(C)nc3ccccc32)cc1` (stereo not drawn) [SMR000075355] had a negative logarithm of the IC50 (pIC50) below 4.30.

In turn, `CCCCCCCOc1ccc(OC(=O)c2ccncc2)cc1` [(4-heptoxyphenyl) pyridine-4-carboxylate] had a negative logarithm of the IC50 (pIC50) below 4.90.

`Brc1ccc(-c2csc(N3CCCCCC3)n2)cc1` [1-[4-(4-bromophenyl)-1,3-thiazol-2-yl]azepane]: the pIC50 is below 4.90.

As for `CCCN(CCC)CCNC(=O)c1cc2c(=O)n(C)c3ccccc3c2n1C` [MLS000118109], the pIC50 was below 4.30.

`Clc1ccc(-c2c[n+](Cc3ccc(Cl)cc3Cl)c3n2CCCCC3)cc1` [SMR000420192] gave a pIC50 below 4.90.

In the case of `CC(C)C(=O)N1CCN(c2ccccc2NC(=O)COc2ccccc2)CC1` [N-[2-[4-(2-methyl-1-oxopropyl)-1-piperazinyl]phenyl]-2-phenoxyacetamide], the pIC50 is below 4.30.

Consider `O=C(CCCCCCC(=O)Nc1ccccc1)NO` [Zolinza], for which the pIC50 is below 4.30.

`C[N+]1=C(CC=Nc2ccccc2)C(C)(C)c2ccccc21` [MLS000390698] had a pIC50 below 4.30.
